Test results: patent US20250228239A1, “MOLECULES HAVING PESTICIDAL UTILITY, AND INTERMEDIATES, COMPOSITIONS, AND PROCESSES, RELATED THERETO” (priority 2024, published 2025)

Tests used:
Type in all cases: in vivo
[1] = test system: Cabbage Looper (Trichoplusia ni, TRIPNI); assay: Bioassays on Cabbage Looper (CL), 128-well diet tray assay; details: Trichoplusia ni; Cabbage Looper; rating class; read-out: CL
Outline: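 Test molecule was dissolved in 90:10 acetone-water, applied to artificial diet at 50 μg/cm^2 and allowed to dry. Second-instar larvae were then added, one to five per well, and trays held at 25° C for five to seven days before mortality was scored and averaged.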

[2] = test system: Yellow Fever Mosquito (Aedes aegypti, AEDSAE); details: Yellow Fever Mosquito; rating class
Outline: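 Compounds from DMSO master plates (4000 ppm stock) diluted in 90:10 water/acetone, then dispensed into six replicate plates and infested with ~1-day-old Aedes aegypti larvae in liver-powder water. Held covered at room temperature for 3 days; each well scored for larval mortality and graded on a rating scale.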

[3] = test system: Beet Armyworm (Spodoptera exigua, LAPHEG); assay: Bioassays on Beet Armyworm (BAW), 128-well diet tray assay; details: Spodoptera exigua; Beet Armyworm; rating class; read-out: BAW
Outline: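 One to five second-instar larvae per well on artificial diet surface-treated with 50 μg/cm^2 test molecule (applied in 90:10 acetone-water, dried), eight wells per compound. Trays held vented at 25° C., 14:10 light-dark for five to seven days; percent mortality averaged over the eight wells.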

[4] = test system: Green Peach Aphid (Myzus persicae, MYZUPE); assay: Bioassays on Green Peach Aphid (GPA), foliar spray on cabbage seedlings; details: 72 h, Green Peach Aphid, rating class, read-out: GPA
Outline: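 Percent control (Abbott-corrected versus solvent-sprayed plants) comes from live-aphid counts three days after treatment at about 25° C. Test solution at 200 ppm was sprayed to runoff onto both leaf surfaces of cabbage seedlings infested a day earlier with 20-50 aphids; four replicate pots.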

O=C(Nc1ccc(F)c(NC(=O)C(F)F)c1F)c1cc(NC(=O)[C@H]2[C@H](c3ccc(Cl)c(C(F)(F)F)c3)C2(Cl)Cl)ccc1Cl [F1657, 2-Chloro-5-((1R,3R)-2,2-dichloro-3-(4-chloro-3-(trifluoromethyl)phenyl)cyclopropane-1-carboxamido)-N-(3-(2,2-difluoroacetamido)-2,4-difluorophenyl)benzamide]
pest or weed control at 50 µg/cm2 [1]: 50 to 100%
YFM [2]: A (80–100)
pest or weed control at 50 µg/cm2 [3]: 50 to 100%
pest or weed control at 200 µg/mL [4]: 80 to 100%

Nc1c(F)ccc(NC(=O)c2cc(NC(=O)[C@H]3[C@H](c4cccc(C(F)(F)F)c4)C3(Cl)Cl)ccc2Cl)c1F [F1666, N-(3-Amino-2,4-difluorophenyl)-2-chloro-5-((1R,3R)-2,2-dichloro-3-(3-(trifluoromethyl)phenyl)cyclopropane-1-carboxamido)benzamide]
pest or weed control at 50 µg/cm2 [1]: 50 to 100%
YFM [2]: B (More than 0 – Less than 80)
pest or weed control at 50 µg/cm2 [3]: 50 to 100%
pest or weed control at 200 µg/mL [4]: 80 to 100%

CC(Cl)C(=O)Nc1c(F)ccc(NC(=O)c2cc(NC(=O)[C@H]3[C@H](c4ccc(F)c(C(F)(F)F)c4)C3(Cl)Cl)ccc2Cl)c1F (stereo partly drawn) [F1667, 2-Chloro-N-(3-(2-chloropropanamido)-2,4-difluorophenyl)-5-((1R,3R)-2,2-dichloro-3-(4-fluoro-3-(trifluoromethyl)phenyl)cyclopropane-1-carboxamido)benzamide]
pest or weed control at 50 µg/cm2 [1]: 50 to 100%
YFM [2]: B (More than 0 – Less than 80)
pest or weed control at 50 µg/cm2 [3]: 50 to 100%
pest or weed control at 200 µg/mL [4]: 0 to 80%

O=C(Cc1ccccc1)Nc1c(F)ccc(NC(=O)c2cc(NC(=O)[C@H]3[C@H](c4ccc(Cl)c(Cl)c4)C3(Cl)Cl)ccc2Cl)c1F [F1673, 2-Chloro-5-((1R,3R)-2,2-dichloro-3-(3,4-dichlorophenyl)cyclopropane-1-carboxamido)-N-(2,4-difluoro-3-(2-phenylacetamido)phenyl)benzamide]
pest or weed control at 50 µg/cm2 [1]: 50 to 100%
YFM [2]: B (More than 0 – Less than 80)
pest or weed control at 50 µg/cm2 [3]: 50 to 100%
pest or weed control at 200 µg/mL [4]: 0 to 80%

CC(=O)Nc1c(F)ccc(NC(=O)c2cc(NC(=O)[C@H]3[C@H](c4cccc(C(F)(F)F)c4)C3(Cl)Cl)ccc2Cl)c1F [F1678, N-(3-Acetamido-2,4-difluorophenyl)-2-chloro-5-((1R,3R)-2,2-dichloro-3-(3-(trifluoromethyl)phenyl)cyclopropane-1-carboxamido)benzamide]
pest or weed control at 50 µg/cm2 [1]: 50 to 100%
YFM [2]: B (More than 0 – Less than 80)
pest or weed control at 50 µg/cm2 [3]: 50 to 100%
pest or weed control at 200 µg/mL [4]: 80 to 100%

CC(=O)Nc1c(F)ccc(NC(=O)c2cc(NC(=O)[C@H]3[C@H](c4ccc(F)c(Cl)c4)C3(Cl)Cl)ccc2Cl)c1F [F1694, N-(3-Acetamido-2,4-difluorophenyl)-2-chloro-5-((1R,3R)-2,2-dichloro-3-(3-chloro-4-fluorophenyl)cyclopropane-1-carboxamido)benzamide]
pest or weed control at 50 µg/cm2 [1]: 50 to 100%
YFM [2]: A (80–100)
pest or weed control at 50 µg/cm2 [3]: 50 to 100%
pest or weed control at 200 µg/mL [4]: 80 to 100%

O=C(Nc1ccc(F)c(NC(=O)C(F)(F)F)c1F)c1cc(NC(=O)[C@H]2[C@H](c3ccc(F)c(Cl)c3)C2(Cl)Cl)ccc1Cl [F1695, 2-Chloro-5-((1R,3R)-2,2-dichloro-3-(3-chloro-4-fluorophenyl)cyclopropane-1-carboxamido)-N-(2,4-difluoro-3-(2,2,2-trifluoroacetamido)phenyl)benzamide]
pest or weed control at 50 µg/cm2 [1]: 50 to 100%
YFM [2]: B (More than 0 – Less than 80)
pest or weed control at 50 µg/cm2 [3]: 50 to 100%
pest or weed control at 200 µg/mL [4]: 80 to 100%

O=C(Nc1ccc(F)c(NC(=O)C(F)(F)C(F)(F)F)c1F)c1cc(NC(=O)[C@H]2[C@H](c3ccc(F)c(Cl)c3)C2(Cl)Cl)ccc1Cl [F1696, 2-Chloro-5-((1R,3R)-2,2-dichloro-3-(3-chloro-4-fluorophenyl)cyclopropane-1-carboxamido)-N-(2,4-difluoro-3-(2,2,3,3,3-pentafluoropropanamido)phenyl)benzamide]
pest or weed control at 50 µg/cm2 [1]: 50 to 100%
YFM [2]: A (80–100)
pest or weed control at 50 µg/cm2 [3]: 50 to 100%
pest or weed control at 200 µg/mL [4]: 80 to 100%

O=C(Nc1ccc(F)c(NC(=O)C(F)(F)Cl)c1F)c1cc(NC(=O)[C@H]2[C@H](c3ccc(F)c(Cl)c3)C2(Cl)Cl)ccc1Cl [F1697, 2-Chloro-N-(3-(2-chloro-2,2-difluoroacetamido)-2,4-difluorophenyl)-5-((1R,3R)-2,2-dichloro-3-(3-chloro-4-fluorophenyl)cyclopropane-1-carboxamido)benzamide]
pest or weed control at 50 µg/cm2 [1]: 50 to 100%
YFM [2]: A (80–100)
pest or weed control at 50 µg/cm2 [3]: 50 to 100%
pest or weed control at 200 µg/mL [4]: 80 to 100%

O=C(Nc1ccc(F)c(NC(=O)C2CCCO2)c1F)c1cc(NC(=O)[C@H]2[C@H](c3ccc(F)c(Cl)c3)C2(Cl)Cl)ccc1Cl (stereo partly drawn) [F1699, N-(3-(2-Chloro-5-((1R,3R)-2,2-dichloro-3-(3-chloro-4-fluorophenyl)cyclopropane-1-carboxamido)benzamido)-2,6-difluorophenyl)tetrahydrofuran-2-carboxamide]
pest or weed control at 50 µg/cm2 [1]: 50 to 100%
YFM [2]: B (More than 0 – Less than 80)
pest or weed control at 50 µg/cm2 [3]: 50 to 100%
pest or weed control at 200 µg/mL [4]: 0 to 80%

O=C(CC(F)(F)F)Nc1c(F)ccc(NC(=O)c2cc(NC(=O)[C@H]3[C@H](c4ccc(F)c(Cl)c4)C3(Cl)Cl)ccc2Cl)c1F [F1701, 2-Chloro-5-((1R,3R)-2,2-dichloro-3-(3-chloro-4-fluorophenyl)cyclopropane-1-carboxamido)-N-(2,4-difluoro-3-(3,3,3-trifluoropropanamido)phenyl)benzamide]
pest or weed control at 50 µg/cm2 [1]: 50 to 100%
YFM [2]: B (More than 0 – Less than 80)
pest or weed control at 50 µg/cm2 [3]: 50 to 100%
pest or weed control at 200 µg/mL [4]: 80 to 100%

O=C(CC1CC1)Nc1c(F)ccc(NC(=O)c2cc(NC(=O)[C@H]3[C@H](c4ccc(F)c(Cl)c4)C3(Cl)Cl)ccc2Cl)c1F [F1702, 2-Chloro-N-(3-(2-cyclopropylacetamido)-2,4-difluorophenyl)-5-((1R,3R)-2,2-dichloro-3-(3-chloro-4-fluorophenyl)cyclopropane-1-carboxamido)benzamide]
pest or weed control at 50 µg/cm2 [1]: 50 to 100%
YFM [2]: A (80–100)
pest or weed control at 50 µg/cm2 [3]: 50 to 100%
pest or weed control at 200 µg/mL [4]: 80 to 100%

O=C(Nc1ccc(F)c(NC(=O)C(F)(F)C(F)F)c1F)c1cc(NC(=O)[C@H]2[C@H](c3ccc(F)c(Cl)c3)C2(Cl)Cl)ccc1Cl [F1703, 2-Chloro-5-((1R,3R)-2,2-dichloro-3-(3-chloro-4-fluorophenyl)cyclopropane-1-carboxamido)-N-(2,4-difluoro-3-(2,2,3,3-tetrafluoropropanamido)phenyl)benzamide]
pest or weed control at 50 µg/cm2 [1]: 50 to 100%
YFM [2]: A (80–100)
pest or weed control at 50 µg/cm2 [3]: 50 to 100%
pest or weed control at 200 µg/mL [4]: 80 to 100%

CCC(=O)Nc1c(F)ccc(NC(=O)c2cc(NC(=O)[C@H]3[C@H](c4ccc(F)c(Cl)c4)C3(Cl)Cl)ccc2Cl)c1F [F1704, 2-Chloro-5-((1R,3R)-2,2-dichloro-3-(3-chloro-4-fluorophenyl)cyclopropane-1-carboxamido)-N-(2,4-difluoro-3-propionamidophenyl)benzamide]
pest or weed control at 50 µg/cm2 [1]: 50 to 100%
YFM [2]: A (80–100)
pest or weed control at 50 µg/cm2 [3]: 50 to 100%
pest or weed control at 200 µg/mL [4]: 80 to 100%
